Assay results from patent publication US11338004B2, “Composition for preventing or treating cranial nerve disease comprising fomes fomentarius extract, fraction thereof, or compound isolated therefrom as active ingredient” (priority 2015, dated 2022).

Tests used:
xanthine oxidase = xanthine oxidase (Homo sapiens, UniProt P47989); test: Xanthine oxidase inhibitory activity; type: biochemical; conditions: for inhibition at 10 µg/mL: 10 μg/mL; for inhibition at 20 µg/mL: 20 μg/mL; for inhibition at 40 µg/mL: 40 μg/mL; for inhibition at 80 µg/mL: 80 μg/mL; for inhibition at 160 µg/mL: 160 μg/mL; for inhibition at 320 µg/mL: 320 μg/mL; for inhibition at 640 µg/mL: 640 μg/mL
xanthine oxidase, sequence (P47989 whole entry, species assumed): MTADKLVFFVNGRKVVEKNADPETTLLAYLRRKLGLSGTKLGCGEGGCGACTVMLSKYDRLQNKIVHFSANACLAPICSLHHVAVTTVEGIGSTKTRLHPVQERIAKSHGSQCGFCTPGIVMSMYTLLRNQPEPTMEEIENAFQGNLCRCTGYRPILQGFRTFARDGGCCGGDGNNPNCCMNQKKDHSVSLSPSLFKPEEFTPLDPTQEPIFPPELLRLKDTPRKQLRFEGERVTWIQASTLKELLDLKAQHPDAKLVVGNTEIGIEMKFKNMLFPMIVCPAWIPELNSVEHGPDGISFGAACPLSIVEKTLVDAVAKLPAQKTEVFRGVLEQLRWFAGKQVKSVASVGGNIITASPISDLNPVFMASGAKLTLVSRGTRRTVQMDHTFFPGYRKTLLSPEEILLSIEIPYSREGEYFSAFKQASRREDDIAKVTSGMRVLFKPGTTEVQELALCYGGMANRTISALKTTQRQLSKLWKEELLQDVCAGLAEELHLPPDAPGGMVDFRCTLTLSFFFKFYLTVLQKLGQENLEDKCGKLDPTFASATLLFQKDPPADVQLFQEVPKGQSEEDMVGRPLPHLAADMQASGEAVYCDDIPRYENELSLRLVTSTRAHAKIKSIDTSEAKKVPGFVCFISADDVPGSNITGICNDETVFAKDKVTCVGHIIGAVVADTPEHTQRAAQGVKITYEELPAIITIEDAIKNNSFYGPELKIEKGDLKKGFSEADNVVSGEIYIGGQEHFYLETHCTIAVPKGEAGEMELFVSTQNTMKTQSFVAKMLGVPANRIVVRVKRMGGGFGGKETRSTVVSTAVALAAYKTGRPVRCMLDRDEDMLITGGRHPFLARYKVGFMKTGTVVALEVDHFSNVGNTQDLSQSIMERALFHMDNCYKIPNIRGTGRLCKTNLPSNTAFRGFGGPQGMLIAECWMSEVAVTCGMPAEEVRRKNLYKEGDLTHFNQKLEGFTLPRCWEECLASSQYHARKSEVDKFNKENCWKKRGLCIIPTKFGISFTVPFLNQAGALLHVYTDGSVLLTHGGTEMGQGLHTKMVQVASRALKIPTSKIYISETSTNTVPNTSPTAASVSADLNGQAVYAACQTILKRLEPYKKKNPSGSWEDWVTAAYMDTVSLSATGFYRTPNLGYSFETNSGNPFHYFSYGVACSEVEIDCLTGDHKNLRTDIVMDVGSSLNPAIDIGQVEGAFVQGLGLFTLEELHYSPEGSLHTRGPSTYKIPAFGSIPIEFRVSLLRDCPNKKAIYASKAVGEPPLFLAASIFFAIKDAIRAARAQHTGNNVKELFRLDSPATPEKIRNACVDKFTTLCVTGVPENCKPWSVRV
Method: 0.2 ml of the substrate solution in which 2 mM xanthine was dissolved was added to 0.1 ml of a sample solution and 0.6 ml of 0.1 M potassium phosphate buffer at pH 7.5, and 0.1 ml of 0.2 unit/ml xanthine oxidase was added thereto, followed by reaction at 37° C. for 5 minutes. Then, 1 ml of 1N HCl was added to terminate the reaction, and then the absorbance of the uric acid produced in the reaction solution was measured at 292 nm. The inhibitory activity of xanthine oxidase was shown by the absorbance reduction rate of the addition group and the non-addition group of the sample solution.
Xanthine oxidase acts as a rate-limiting enzyme in the terminal oxidation of all purines and is an enzyme that acts as a source of oxidizing agents such as superoxide radicals and hydrogen peroxide. The superoxide anion inhibition by xanthine/xanthine oxidase enzymes is shown by superoxide anion scavenging activity and xanthine oxidase inhibition and has biologically important meaning through inhibition of gout and formation of free radicals. The superoxide radical scavenging effects of 10, 20, 40, 80, 160, 320, and 640 μg mL-1 of each fraction extract of the Fomes fomentarius were compared using butylated hydroxy anisole (BHA) as a positive control group.
The superoxide radical scavenging effects of 10, 20, 40, 80, 160, 320, and 640 μg mL-1 of the Acer tegmentosum maxim extract were compared using butylated hydroxy anisole (BHA) as a positive control group.
The superoxide radical scavenging effects of 10, 20, 40, 80, 160, 320, and 640 μg mL-1 of the berchemia berchemiaefolia extract were compared using butylated hydroxy anisole (BHA) as a positive control group.
The superoxide radical scavenging effects of 10, 20, 40, 80, 160, 320, and 640 μg mL-1 of the Lithospermum erythrorhizon extract were compared using butylated hydroxy anisole (BHA) as a positive control group.

[1] = test system: NO production in mouse BV2 cell line; test: NO (nitrite) production in LPS-treated BV2 cells, Griess reagent; type: cell-based
Method: A mouse BV2 cell line was stored and maintained in a humidified incubator at 37° C. under a 5% CO2 condition using a DMEM culture medium supplemented with 10% FBS, 100 U/ml of penicillin and 100 μg/ml of streptomycin, was trypsinized, and was subcultured.
In the present disclosure, the amount of nitrite produced was measured to determine the anti-inflammatory activity of the Fomes fomentarius fraction. Nitrite is a major stable product of nitric oxide (NO), one of the inflammatory mediators, and was measured by using Griess reagent.
First, the cells were cultured at 5×10^5 cells/ml in a 6-well plate. They were treated with Fomes fomentarius extracts having various concentrations (5, 20, 50, and 100 μg/ml) and then reacted for 24 hours in the presence or absence of LPS ([…]). DMEM medium for BV2 cells and the fresh medium containing LPS (1 μg/ml) and the sample were treated at the same time and cultured for 24 hours. The amount of NO produced was determined using Griess reagent in which 100 μl of cell culture supernatant and 100 μl of Griess reagent [1% (w/v) sulfanilamide, 0.1% (w/v) naphthyl ethylenediamine in 2.5% (v/v) phosphoric acid] were mixed and reacted on a 96-well plate for 10 minutes, and then an ELISA reader was used to measure absorbance at 540 nm. Standard concentration curves were obtained by stepwise dilution of sodium nitrite (NaNO2).

NF-κB = test: Western blotting of LPS-induced NF-κB phosphorylation in BV2 cells; type: cell-based, mouse
Method: BV2 cells were placed in a 6-well plate at 7.5×10^5 cells/well, and stabilized at 37° C. and 5.0% CO2 for 12 hours. After that, LPS and the Fomes fomentarius CHCl3 fractions, the nonadecanone (2-Nonadecanone) or the docosenol (cis-13-Docosenol) compounds were placed according to groups and were incubated for 1 hour. The cell culture was collected and used for cytokine analysis. All the cell culture was removed, and then 1 ml of dPBS was dispensed to each well to wash and remove the wells. 200 μl of the lysis buffer was dispensed per well and the cells attached to the bottom of the well were removed with a cell scriper, and then were slowly mixed and reacted for […] on ice at 4° C. The cells were removed with a scriper again and all the lysis solution was collected. The collected lysis solution was centrifuged at 15,000 rpm for 15 minutes at 4° C. so that only the supernatant was collected. In order to plot standard curves for protein quantification, a standard BSA solution ([…]) and a dilution were prepared in which bradford solution and D.W. were diluted with 4:1. After the bradford dilution was dispensed in each 200 μl to 96-well, the standard BSA solution and the cell lysis supernatant were dispersed in a volume of 10 μl per well, and then they were mixed by pipetting. After 10 minutes, the protein was quantitated by measuring the absorbance at 595 nm in a reader. The subsequent procedures were carried out in the same manner as in the quantitative analysis of the protein of Example 3-3.

Compound	inhibition at 10 µg/mL (xanthine oxidase) [%]	inhibition at 20 µg/mL (xanthine oxidase) [%]	inhibition at 40 µg/mL (xanthine oxidase) [%]	inhibition at 80 µg/mL (xanthine oxidase) [%]	inhibition at 160 µg/mL (xanthine oxidase) [%]	inhibition at 320 µg/mL (xanthine oxidase) [%]	inhibition at 640 µg/mL (xanthine oxidase) [%]	NO production (nitrite) ([1]; 5 μg/ml)	NO production (nitrite) ([1]; 20 μg/ml)	NO production (nitrite) ([1]; 50 μg/ml)	NO production (nitrite) ([1]; 100 μg/ml)	p-NF-κB/NF-κB ratio (%), expression ratio (vehicle 100%) (NF-κB; 5 μg/ml)	p-NF-κB/NF-κB ratio (%), expression ratio (vehicle 100%) (NF-κB; 20 μg/ml)	p-NF-κB/NF-κB ratio (%), expression ratio (vehicle 100%) (NF-κB; 50 μg/ml)	p-NF-κB/NF-κB ratio (%), expression ratio (vehicle 100%) (NF-κB; 100 μg/ml)
CCCCCCCC/C=C\CCCCCCCCCCCCO [docosenol, cis-13-Docosenol]	0.9 ± 0.3	2.5 ± 0.5	3.6 ± 0.7	5.8 ± 1.1	7.7 ± 0.9	9.6 ± 0.8	11.8 ± 1.4	8.04±0.55	5.56±0.61	4.42±0.48	2.76±40.59	about 41%	about 28%	about 8%	–
CCCCCCCCCCCCCCCCCC(C)=O [nonadecanone, 2-Nonadecanone]	4.1 ± 0.5	6.9 ± 0.8	12.3 ± 1.1	20.5 ± 0.9	21.6 ± 0.7	24.6 ± 1.1	30.8 ± 1.4	2.98±0.78	2.35±0.68	1.99±0.39	1.62±0.41	about 35%	about 21%	about 15%	about 12%
